Marks after values point to notes of the source that are not given here.
What was measured:
certain types of cancer = settings: See U.S. Pat. No. 7,338,946; cited from earlier work
[1] = system: advanced solid tumors refractory to treatment; experiment: Phase I dose-escalation trial (US): anti-tumor activity (partial response or stable disease); format: in vivo, human
Description: (§1) Two Phase I dose-escalation clinical studies involving sodium trans-[tetrachlorobis(1H-indazole)ruthenate (III)] (“test drug”) have been conducted. The primary objective of both studies is to determine the safety, tolerability and maximal tolerated dose (MTD) of the test drug. Secondary objectives are to estimate the PK parameters, to identify any preliminary evidence of anti-tumor activity of the test drug in patients with advanced cancers, and to explore pharmacodynamic (PD) endpoints which may be of use in the further development of the test drug.
(§2) In the first trial which has been conducted in two centers in the US, the “test drug” was given intravenously once a week, i.e., on days 1, 8, and 15 of each 28-day cycle to patients with advanced solid tumors refractory to treatment. The patients had advanced solid tumors that had been heavily treated previously, had failed an average of 7 previous lines of chemotherapy, and had progressing disease at the time of entry into the trial. Standard 3+3 design with expanded cohort up to 25 patients at the maximal tolerated dose (MTD).
36 pts completed ≧one cycle of therapy and are evaluable to assess antitumor efficacy. […] All patients had PD at study entry.

[2] = Pharmacokinetics in patients: urinary excretion of ruthenium; format: in vivo, human; settings: in the 24 hours following Cycle 1 Day 1 dosing
Experimental: (§3) Pharmacokinetics: PK samples were obtained 0, 0.25, 0.5, 1, 2, 4, 6-8, 10-12, and 24 hours after the start of the infusion on Cycle 1 Day 1 as well as pre-infusion on Cycle 1 Day 8 and Cycle 2 Day 1. Plasma and urine were analyzed for total ruthenium [Ru] (free and bound). […] Peak plasma Ru levels were achieved by hour 2 (FIG. 2A). […] The estimated T½ is 91.4-112 hours.

[3] = system: patients with advanced solid tumors refractory to treatment; experiment: Phase I dose-escalation trial (UK): adverse reactions; format: in vivo, human; settings: dose of 320 mg/m^2 and above
Experimental: (§4) The second trial was conducted in two centers in the United Kingdom (UK) with the test drug being administered on days 1 through 4 of each 21-day cycle to patients with advanced solid tumors refractory to treatment. The patients had been heavily pre-treated and had failed an average of 3 previous lines of chemotherapy. Dose escalation progressed from 20 to 500 mg/m^2.
(§5) Thereafter, in the US trial, in some patients, premedication of decadron (dexamethasone) was administered, with or without 5HT3 antagonists (serotonin antagonists) like ondansetron and granisetron. The decadron was given to prevent fever, at 4-10 mg IV. […] None of the patients premedicated with decadron had any incidence of infusion-related fever.

[4] = system: patients with advanced solid tumors refractory to treatment; experiment: Phase I dose-escalation trial (US): safety, tolerability, DLT and MTD; format: in vivo, human
Description: as §1, §2
Major Inclusion/Exclusion Criteria: • Patients≧18 years with histologically or cytologically confirmed advanced solid tumors refractory to standard therapies • ECOG PS 0 or 1 • Adequate hematologic, hepatic and renal function • No symptomatic CNS metastases, no primary brain tumors • No evidence of ischemia, recent MI, or significant abnormality on ECG • No Peripheral neuropathy ≧Grade 2 • Minimum life expectancy ≧12 weeks
Definition of Dose Limiting Toxicity (DLT):
Toxicity severity graded according to the CTCAE (ver. 3.0); occurring during Cycle 1 and related to test drug: • Grade 4 neutropenia for ≧7 days • Febrile neutropenia • Grade 4 thrombocytopenia or Grade • ≧Grade 2 neurotoxicity • ≧Grade 2 cardiotoxicity • Grade 2 hypersensitivity reaction or infusion reaction • Any other non-hematologic Grade 3 or 4 toxicity other than nausea/vomiting or alopecia • Inability to complete the first cycle due to any toxicity thought to be related to test drug.

[5] = system: patients with advanced solid tumors refractory to treatment; experiment: Infusional fever with or without steroid premedication (US trial); format: in vivo, human
Experimental: as §5

[6] = system: advanced solid tumors refractory to treatment; experiment: Phase I dose-escalation trial (UK): anti-tumor effect; format: in vivo, human
Description: as §1, §4

[7] = Pharmacokinetics in patients: plasma total ruthenium; format: in vivo, human; settings: for C1D8 Hour 0 ng/mL Ru / C2D1 Hour 0 ng/mL Ru: pre-infusion trough
Experimental: as §3

[8] = 320 mg/m^2, total drug 630 mg, NET (carcinoid tumor of small intestine), 3 prior systemic therapies
[9] = 320 mg/m^2, total drug 630 mg, NET (carcinoid tumor of small intestine), 3 prior systemic therapies, listed as Sodium trans-[tetrachlorobis(1H-indazole)ruthenate (III)]
[10] = US trial, IV once a week on days 1, 8, 15 of 28-day cycle

## [Cl-].[Cl-].[Cl-].[Cl-].[Ru+3].c1ccc2[nH][nH+]cc2c1.c1ccc2[nH]ncc2c1.c1ccc2[nH]ncc2c1 [indazolium trans-[tetrachlorobis(1H-indazole)ruthenate (III)], reference compound]
Certain types of cancer
  inducing apoptosis in certain types of cancer: highly potent

## [Cl][Ru-]([Cl])([Cl])[Cl].[Na+].c1ccc2[nH]ncc2c1.c1ccc2[nH]ncc2c1 [test drug, sodium trans-[tetrachlorobis(1H-indazole)ruthenate (III)]]
Certain types of cancer
  inducing apoptosis in certain types of cancer: highly potent
[1]; 320 mg/m^2, 7 patients dosed
  Patients replaced in due to PD in Cycle 1: 1
[1]; 320 mg/m^2, total drug 531 mg, NSCLC, 7 prior systemic therapies
  Duration of therapy: 16 weeks
[1]; 320 mg/m^2, total drug 618 mg, NSCLC, 4 prior systemic therapies
  Duration of therapy: 16 weeks
[1]; [8]
  Duration of therapy: 100+ weeks
  Response: PR (partial response (PR))
[1]; [9]
  Duration of therapy: over 100 weeks
  Response: tumor regression and partial response
[1]; 420 mg/m^2, 5 patients dosed
  Patients replaced in due to PD in Cycle 1: 2
[1]; 420 mg/m^2, total drug 832 mg, NET, 0 prior systemic therapies (failed 4 prior chemo- and Yttrium-embolization procedures)
  Duration of therapy: 24 weeks
[1]; 500 mg/m^2, total drug 890 mg, Unknown primary, 2 prior systemic therapies
  Duration of therapy: 22 weeks
[1]; 625 mg/m^2, total drug 1175 mg, GE Junction, 3 prior systemic therapies
  Duration of therapy: 12+ weeks
[1]; 625 mg/m^2, total drug 1190 mg, CRC, 3 prior systemic therapies
  Duration of therapy: 12 weeks
[1]; 780 mg/m^2, 9 patients dosed
  Patients replaced in due to PD in Cycle 1: 1
[1]; 780 mg/m^2, total drug 1450 mg, Sarcoma, 3 prior systemic therapies
  Duration of therapy: 16 weeks
[1]; 780 mg/m^2, total drug 1544 mg, NET, 1 prior systemic therapy
  Duration of therapy: 27+ weeks
[1]; human dose escalating clinical trial
  minimum effective dosage for general use of treating cancer: 320 mg/m^2
[2]
  urinary excretion of the test drug derived ruthenium: low urinary excretion
[3]
  adverse reactions: fever and chill were seen
[4]; 320 mg/m^2, 7 patients dosed
  Patients w/ DLT: 1
[4]; 320 mg/m^2 on days 1, 8, 15 of 28-day cycle, carcinoid tumor patient treated over 100 weeks
  major adverse event related to the test drug: No major adverse event
[4]; 625 mg/m^2, 6 patients dosed
  Patients w/ DLT: 1
[4]; 780 mg/m^2, 9 patients dosed
  Patients w/ DLT: 3
[4]; 780 mg/m^2, patient, not premedicated with steroids
  DLT Seen at 780 mg/m^2: A person had an infusion reaction consisting of fever
[4]; 780 mg/m^2, person one
  time for Grade 2 creatinine elevation to return to baseline: within 1 week.
[4]; 780 mg/m^2, person one, following Cycle 1 Day 1 dosing, fatigue
  DLT Seen at 780 mg/m^2: Grade 1 fatigue following Cycle 1 Day 1 dosing associated
[4]; 780 mg/m^2, person one, following Cycle 1 Day 1 dosing, nausea
  DLT Seen at 780 mg/m^2: person one had Grade 2 nausea, Grade 1 vomiting,
[4]; 780 mg/m^2, person two
  time for Grade 2 creatinine elevation to return to baseline: ≤ 3 weeks.
[4]; [10]
  DLT dose: 780 mg/m^2
  maximal tolerated dose (MTD): 625 mg/m^2
[5]; 320 mg/m^2, no steroid premedication, 3 patients
  # with fever: 0
[5]; 320 mg/m^2, steroid premedication, 4 patients
  # with fever: 0
[5]; 420 mg/m^2, no steroid premedication, 3 patients, one had fever but then none after premed of additional doses
  # with fever: 2*
[5]; 420 mg/m^2, steroid premedication, 2 patients
  # with fever: 0
[5]; 500 mg/m^2, no steroid premedication, 1 patient
  # with fever: 1
[5]; 500 mg/m^2, steroid premedication, 2 patients
  # with fever: 0
[5]; 625 mg/m^2, no steroid premedication, 8 patients
  # with fever: 1
[5]; 625 mg/m^2, steroid premedication, 10 patients
  # with fever: 0
[5]; 780 mg/m^2, no steroid premedication, 3 patients
  # with fever: 1
[5]; 780 mg/m^2, steroid premedication, 6 patients
  # with fever: 0
[5]; at therapeutically effective doses
  incidence of fever or chill on intravenous infusion: higher incidence of fever or chill
[5]; patients without premedication, US trial
  infusional fever: high likelihood of infusional fever
[6]; Patient 1, 20 mg/m^2, Esophageal
  # weeks of treatment: 2 weeks
[6]; Patient 2, 40 mg/m^2, Head & Neck
  # weeks of treatment: 4 weeks
[6]; Patient 2, 40 mg/m^2 days 1 through 4 of 21-day cycle, Head & Neck
  Anti-tumor effect (best response): Stable disease
[6]; Patient 3, 80 mg/m^2, Mesothelioma
  # weeks of treatment: 2 weeks
[6]; Patient 4, 160 mg/m^2, Cecum
  # weeks of treatment: 2 weeks
[6]; Patient 5, 320 mg/m^2, Anal
  # weeks of treatment: 1 weeks
[6]; Patient 6, 500 mg/m^2, Rectal
  # weeks of treatment: 4 weeks
[6]; Patient 6, 500 mg/m^2 days 1 through 4 of 21-day cycle, Rectal
  Anti-tumor effect (best response): Stable disease
[6]; Patient 7, 500 mg/m^2, Esophageal
  # weeks of treatment: 2 weeks
[7]; 20 mg/m^2, plasma total Ru
  C1D1 Hour 24 ng/mL Ru: 1366 ng/mL Ru
  C1D8 Hour 0 ng/mL Ru: 528 ng/mL Ru
  C2D1 Hour 0 ng/mL Ru: 670 ng/mL Ru
[7]; 40 mg/m^2, plasma total Ru
  C1D1 Hour 24 ng/mL Ru: 2884 ng/mL Ru
  C1D8 Hour 0 ng/mL Ru: 1197 ng/mL Ru
  C2D1 Hour 0 ng/mL Ru: 1472 ng/mL Ru
[7]; 80 mg/m^2, plasma total Ru
  C1D1 Hour 24 ng/mL Ru: 4831 ng/mL Ru
[7]; 160 mg/m^2, plasma total Ru
  C1D1 Hour 24 ng/mL Ru: 4639 ng/mL Ru
  C1D8 Hour 0 ng/mL Ru: 4000 ng/mL Ru
  C2D1 Hour 0 ng/mL Ru: 6588 ng/mL Ru
[7]; 320 mg/m^2, plasma total Ru
  C1D1 Hour 24 ng/mL Ru: 20033 ng/mL Ru
  C1D8 Hour 0 ng/mL Ru: 7667 ng/mL Ru
  C2D1 Hour 0 ng/mL Ru: 10126 ng/mL Ru
[7]; 420 mg/m^2, plasma total Ru
  C1D1 Hour 24 ng/mL Ru: 25921 ng/mL Ru
  C1D8 Hour 0 ng/mL Ru: 9595 ng/mL Ru
  C2D1 Hour 0 ng/mL Ru: 14698 ng/mL Ru
[7]; 500 mg/m^2, plasma total Ru
  C1D1 Hour 24 ng/mL Ru: 28070 ng/mL Ru
  C1D8 Hour 0 ng/mL Ru: 11880 ng/mL Ru
  C2D1 Hour 0 ng/mL Ru: 13000 ng/mL Ru
[7]; 625 mg/m^2, plasma total Ru
  C1D1 Hour 24 ng/mL Ru: 35216 ng/mL Ru
  C1D8 Hour 0 ng/mL Ru: 12303 ng/mL Ru
  C2D1 Hour 0 ng/mL Ru: 14363 ng/mL Ru
[7]; 780 mg/m^2, plasma total Ru
  C1D1 Hour 24 ng/mL Ru: 43105 ng/mL Ru
  C1D8 Hour 0 ng/mL Ru: 17001 ng/mL Ru
  C2D1 Hour 0 ng/mL Ru: 22125 ng/mL Ru
[7]; 20 to 780 mg/m^2
  dose proportionality of Cmax and AUC0-168: good dose proportionality
[7]; after start of infusion, Cycle 1 Day 1
  time by which peak plasma Ru levels were achieved: ≤ 2 h
[7]; noted by Cycle 1 Day 8 and Cycle 2 Day 1 levels
  accumulation of Ru following dosing: There is accumulation of Ru following dosing
[7]; plasma total Ru, patients
  estimated T½: 91.4 to 112 h
